Measurements reported in patent US6921806B2, “Plant growth factor” (Kyowa Hakko Kogyo Co. Ltd., priority 1995, dated 2005).
[ ]: non-standard residue; d: D form. sY = N[C@@H](Cc1ccc(OS(=O)(=O)O)cc1)C(=O)O

System: single asparagus cells
Test: bioassay of the plant growth factors: colony formation frequency of incubated single asparagus cells
Format: cell-based, Asparagus officinalis L.
Conditions: peptide made by synthesizer and enzymatic sulfation
Protocol: Single asparagus cells, as obtained according to the method of Example 4, were implanted in the media, as prepared by the method of Example 5, and incubated with the present plant growth factor in the media. The influence of the plant growth factor on the proliferation of the incubated asparagus cells was determined by measuring the change in the colony formation frequency in each medium. Cells were incubated in a 24-well microtiter plate (IWAKI 3820-024). To each well of the microtiter were added 250 μl of a suspension of single asparagus cells as prepared at a cell density of 2-fold the intended final cell density, 125 μl of the liquid medium having a concentration of 4-fold the intended final concentration, and 125 μl of sterilized distilled water or 125 μl of CM as obtained in Example 6, sterilized through filtration (ADVANTEC DISMIC-13 cp, 0.20 μm) and diluted just before use, and fully stirred. Then, the plates were sealed with vinyl tape in order to prevent vaporization, in which the cells were incubated in the dark at 28° C. with shaking at 120 rpm (TAITEC BR-300L). […] On the basis of the data thus obtained for 3 wells or more, the colony formation frequency (C) and the cell viability (L) were calculated according to the following equations. […] The colony formation frequency for the asparagus cells at each CM concentration was determined. […]

Substance: H-[sY]I[sY]TQ-OH [compound (I-1)]
- biological activity of the synthesized peptide compared with isolated compound (I-1): exhibited the biological activity at the same concentrations
